Laboratory results taken from patent publication US12617779B2, “Self degradation-type CDK9 inhibitor prodrug and liposome encapsulating same” (Sumitomo Pharma Co., Ltd., priority 2021, dated 2026).

Tested on: EMT6 cells
Assay: Drug efficacy evaluation test using tumor-bearing mice transplanted with EMT6 cells (Experimental Example 7)
Format: in vivo, BALB/c mice
Conditions: liposome formulation, tail vein, 25 mg/kg and 50 mg/kg twice a week
Method: The liposome formulation encapsulating the compound of the present disclosure was treated and evaluated for anti-tumor effect.
The liposome formulations were prepared as follows. The liposomes encapsulating the compounds of Example 3 and Example 4 were prepared in the same manner as in Experimental Example 4, respectively. The liposome outer solution was replaced with 10 mM tartrate buffer solution/10% sucrose solution (pH 4) using Sephadex G-25 column (PD-10, manufactured by GE Healthcare), followed by concentration by an ultrafiltration filter (AmiconUltra, 100K, 15 mL, manufactured by Merck), and filtration through a 0.22 μm membrane filter.
EMT6 cells (ATCC) were intradermally transplanted into 5-week-old BALB/c mice (BALB/cAnNCrlCrlj, female, Charles River, Japan) around the ventral region at 5×10^5 cells/mouse. […] The tumor volume was measured over time from the start of administration, and the tumor volume reduction effect due to compound administration was evaluated. The tumor volume was calculated by the following formula using the short and long diameters of the tumor measured with an electronic caliper (Mitutoyo). […]
The anti-tumor effect was evaluated by comparing the control group administered with the empty liposome solution and the administration group of the compound of the present disclosure, and calculating T/C by the following formula.

| Structure (SMILES) | Effect on tumor volume |
| --- | --- |
| CN1CC[C@H](c2c(OC(=O)N(C)C[C@@H]3CCCCN3)cc(O)c3c(=O)cc(-c4ccccc4Cl)oc23)[C@H](O)C1 [Example 3, 2-(2-chlorophenyl)-5-hydroxy-8-[(3S,4R)-3-hydroxy-1-methylpiperidin-4-yl]-4-oxo-4H-1-benzopyran-7-yl methyl{[(2S)-piperidin-2-yl]methyl}carbamate] | significantly inhibited the increase in tumor volume |
| CN1CC[C@H](c2c(OC(=O)N(C)C[C@H]3CCCCN3)cc(O)c3c(=O)cc(-c4ccccc4Cl)oc23)[C@H](O)C1 [Example 4, 2-(2-chlorophenyl)-5-hydroxy-8-[(3S,4R)-3-hydroxy-1-methylpiperidin-4-yl]-4-oxo-4H-1-benzopyran-7-yl methyl{[(2R)-piperidin-2-yl]methyl}carbamate] | significantly inhibited the increase in tumor volume |
